Measurements as given in publication PMC5766581, “NF-κB inducing kinase is a therapeutic target for systemic lupus erythematosus” (Nature Communications, 2018).

Assays:
Assay in all cases: SelectScreen kinase panel
Format in all cases: biochemical
P38_delta = molecular target: T1, P38_delta (Homo sapiens, UniProt O15264)
T1 construct: purchased Invitrogen / ThermoFisher SelectScreen
Method: (§1) The ability of NIK to catalyze the hydrolysis of adenosine-5′-triphosphate (ATP) was monitored using the Transcreener ADP (adenosine-5′-diphosphate) assay (Bell Brook Labs, Fitchburg, WI). Purified human NIK kinase domain (a.a. 340–694) (0.5 nM) or mouse NIK kinase domain (a.a. 329–675) (1 nM) derived from a baculovirus-infected insect cell expression system was incubated with test compounds for 0.5–2 h in 50 mM HEPES buffer (pH 7.2) containing 10 mM MgCl2, 2 mM dithiothreitol, 10 μM ATP, 0.01% Triton X-100, 0.1% gamma-globulins from bovine blood, 1% dimethylsulfoxide (DMSO), 7 μg/mL ADP antibody and 5 nM ADP-MR121 633 tracer. Reactions were quenched by the addition of 20 mM EDTA and 0.01% Brij 35. The tracer bound to the antibody was displaced by the ADP generated during the NIK reaction, which caused a decrease in fluorescence polarization that was measured by laser excitation at 633 nm with a Fluorescence Correlation Spectroscopy Plus reader (Evotec AG). Equilibrium dissociation constant (Ki) values for NIK inhibitors are calculated from plots of activity vs. inhibitor concentration using Morrison’s quadratic equation that accounts for the potential of tight binding, and by also applying the conversion factor that accounted for competitive inhibition and the concentration of substrate used in the assay relative to its Michaelis constant (Km). The Ki values with hPKD1 (PKCμ) were determined using the same assay conditions as for NIK. Ki measurements for hKHS1 and hLRRK2, as well as broad kinase selectivity profiling for SMI1, were carried out by Invitrogen using their SelectScreen kinase assay panel (ThermoFisher Scientific, Madison, WI). The vendor offered two types of kinase activity assays, a peptide phosphorylation assay (Z′-LYTE) and an ADP quantitation assay (Adapta), as well as one type of kinase ATP site competitive binding assay (LanthaScreen). See vendor web site for technology and protocol details for each specific kinase assay.
(§2) The average % Inhibition of each kinase is reported (Supplementary Table 1).

PKD1 = molecular target: T2, PKD1 (Homo sapiens, UniProt Q15139); conditions: NIK SMI1 1 µM; ATP Km app
T2 construct: purchased Invitrogen / ThermoFisher SelectScreen
Method: as §1, §2

CLK1 = molecular target: T3, CLK1 (Homo sapiens, UniProt P49759)
T3 construct: purchased Invitrogen / ThermoFisher SelectScreen
Method: as §1, §2

MLK1 = molecular target: T4, MLK1 (Homo sapiens, UniProt P80192)
T4 construct: purchased Invitrogen / ThermoFisher SelectScreen
Method: as §1, §2

Brk = molecular target: T5, Brk (Homo sapiens, UniProt Q13882)
T5 construct: purchased Invitrogen / ThermoFisher SelectScreen
Method: as §1, §2

IKK_beta = molecular target: T6, IKK_beta (Homo sapiens, UniProt O14920)
T6 construct: purchased Invitrogen / ThermoFisher SelectScreen
Method: as §1, §2

PKG1_alpha = molecular target: T7, PKG1_alpha (Homo sapiens, UniProt Q13976)
T7 construct: purchased Invitrogen / ThermoFisher SelectScreen
Method: as §1, §2

IRAK1 = molecular target: T8, IRAK1 (Homo sapiens, UniProt P51617)
T8 construct: purchased Invitrogen / ThermoFisher SelectScreen
Method: as §1, §2

p70S6K = molecular target: T9, p70S6K (Homo sapiens, UniProt P23443)
T9 construct: purchased Invitrogen / ThermoFisher SelectScreen
Method: as §1, §2

p38_alpha = molecular target: T10, p38_alpha (Homo sapiens, UniProt Q16539)
T10 construct: purchased Invitrogen / ThermoFisher SelectScreen
Method: as §1, §2

MRCK_alpha = molecular target: T11, MRCK_alpha (Homo sapiens, UniProt Q5VT25)
T11 construct: purchased Invitrogen / ThermoFisher SelectScreen
Method: as §1, §2

CaMKI_delta = molecular target: T12, CaMKI_delta (Homo sapiens, UniProt Q8IU85)
T12 construct: purchased Invitrogen / ThermoFisher SelectScreen
Method: as §1, §2

SGK2 = molecular target: T13, SGK2 (Homo sapiens, UniProt Q9HBY8)
T13 construct: purchased Invitrogen / ThermoFisher SelectScreen
Method: as §1, §2

ROCK2 = molecular target: T14, ROCK2 (Homo sapiens, UniProt O75116)
T14 construct: purchased Invitrogen / ThermoFisher SelectScreen
Method: as §1, §2

FGFR1 = molecular target: T15, FGFR1 (Homo sapiens, UniProt P11362)
T15 construct: purchased Invitrogen / ThermoFisher SelectScreen
Method: as §1, §2

PKC_theta = molecular target: T16, PKC_theta (Homo sapiens, UniProt Q04759)
T16 construct: purchased Invitrogen / ThermoFisher SelectScreen
Method: as §1, §2

TrkA = molecular target: T17, TrkA (Homo sapiens, UniProt P04629)
T17 construct: purchased Invitrogen / ThermoFisher SelectScreen
Method: as §1, §2

SGK1 = molecular target: T18, SGK1 (Homo sapiens, UniProt O00141)
T18 construct: purchased Invitrogen / ThermoFisher SelectScreen
Method: as §1, §2

NEK4 = molecular target: T19, NEK4 (Homo sapiens, UniProt P51957)
T19 construct: purchased Invitrogen / ThermoFisher SelectScreen
Method: as §1, §2

eEF-2K = molecular target: T20, eEF-2K (Homo sapiens, UniProt O00418)
T20 construct: purchased Invitrogen / ThermoFisher SelectScreen
Method: as §1, §2

PKC_zeta = molecular target: T21, PKC_zeta (Homo sapiens, UniProt Q05513)
T21 construct: purchased Invitrogen / ThermoFisher SelectScreen
Method: as §1, §2

GRK5 = molecular target: T22, GRK5 (Homo sapiens, UniProt P34947)
T22 construct: purchased Invitrogen / ThermoFisher SelectScreen
Method: as §1, §2

MST1 = molecular target: T23, MST1 (Homo sapiens, UniProt Q13043)
T23 construct: purchased Invitrogen / ThermoFisher SelectScreen
Method: as §1, §2

Src = molecular target: T24, Src (Homo sapiens, UniProt P12931)
T24 construct: purchased Invitrogen / ThermoFisher SelectScreen
Method: as §1, §2

PhK_gamm1 = molecular target: T25, PhK_gamm1 (Homo sapiens, UniProt Q16816)
T25 construct: purchased Invitrogen / ThermoFisher SelectScreen
Method: as §1, §2

Axl = molecular target: T26, Axl (Homo sapiens, UniProt P30530)
T26 construct: purchased Invitrogen / ThermoFisher SelectScreen
Method: as §1, §2

InsR = molecular target: T27, InsR (Homo sapiens, UniProt P06213)
T27 construct: purchased Invitrogen / ThermoFisher SelectScreen
Method: as §1, §2

PKA = molecular target: T28, PKA (Homo sapiens, UniProt P17612)
T28 construct: purchased Invitrogen / ThermoFisher SelectScreen
Method: as §1, §2

Ron = molecular target: T29, Ron (Homo sapiens, UniProt Q04912)
T29 construct: purchased Invitrogen / ThermoFisher SelectScreen
Method: as §1, §2

DYRK4 = molecular target: T30, DYRK4 (Homo sapiens, UniProt Q9NR20)
T30 construct: purchased Invitrogen / ThermoFisher SelectScreen
Method: as §1, §2

PRK1 = molecular target: T31, PRK1 (Homo sapiens, UniProt Q16512)
T31 construct: purchased Invitrogen / ThermoFisher SelectScreen
Method: as §1, §2

IRR = molecular target: T32, IRR (Homo sapiens, UniProt P14616)
T32 construct: purchased Invitrogen / ThermoFisher SelectScreen
Method: as §1, §2

T2 sequence (Q15139 whole entry): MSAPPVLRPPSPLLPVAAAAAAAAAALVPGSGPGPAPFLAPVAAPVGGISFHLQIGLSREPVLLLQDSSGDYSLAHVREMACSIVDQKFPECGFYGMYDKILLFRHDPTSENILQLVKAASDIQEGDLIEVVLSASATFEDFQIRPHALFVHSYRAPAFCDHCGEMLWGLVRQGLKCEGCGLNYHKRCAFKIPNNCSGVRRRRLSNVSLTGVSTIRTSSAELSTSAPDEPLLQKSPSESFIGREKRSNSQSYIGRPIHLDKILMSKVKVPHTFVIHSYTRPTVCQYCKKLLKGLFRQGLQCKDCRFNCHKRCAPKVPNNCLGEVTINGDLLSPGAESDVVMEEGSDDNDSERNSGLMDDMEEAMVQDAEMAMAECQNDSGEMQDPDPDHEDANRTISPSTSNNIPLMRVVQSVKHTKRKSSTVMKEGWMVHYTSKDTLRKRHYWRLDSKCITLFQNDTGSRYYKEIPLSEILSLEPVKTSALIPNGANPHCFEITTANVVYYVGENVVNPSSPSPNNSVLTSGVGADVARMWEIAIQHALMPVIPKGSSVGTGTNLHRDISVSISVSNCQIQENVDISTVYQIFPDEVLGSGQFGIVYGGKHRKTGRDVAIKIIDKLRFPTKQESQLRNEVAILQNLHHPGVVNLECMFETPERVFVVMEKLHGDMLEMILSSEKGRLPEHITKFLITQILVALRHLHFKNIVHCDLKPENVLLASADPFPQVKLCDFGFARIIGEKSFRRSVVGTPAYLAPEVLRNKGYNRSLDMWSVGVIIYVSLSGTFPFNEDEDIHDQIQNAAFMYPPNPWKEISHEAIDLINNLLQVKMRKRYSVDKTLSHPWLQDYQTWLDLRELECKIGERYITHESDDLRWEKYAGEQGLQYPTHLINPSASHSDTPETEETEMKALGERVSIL
T4 sequence (P80192 whole entry): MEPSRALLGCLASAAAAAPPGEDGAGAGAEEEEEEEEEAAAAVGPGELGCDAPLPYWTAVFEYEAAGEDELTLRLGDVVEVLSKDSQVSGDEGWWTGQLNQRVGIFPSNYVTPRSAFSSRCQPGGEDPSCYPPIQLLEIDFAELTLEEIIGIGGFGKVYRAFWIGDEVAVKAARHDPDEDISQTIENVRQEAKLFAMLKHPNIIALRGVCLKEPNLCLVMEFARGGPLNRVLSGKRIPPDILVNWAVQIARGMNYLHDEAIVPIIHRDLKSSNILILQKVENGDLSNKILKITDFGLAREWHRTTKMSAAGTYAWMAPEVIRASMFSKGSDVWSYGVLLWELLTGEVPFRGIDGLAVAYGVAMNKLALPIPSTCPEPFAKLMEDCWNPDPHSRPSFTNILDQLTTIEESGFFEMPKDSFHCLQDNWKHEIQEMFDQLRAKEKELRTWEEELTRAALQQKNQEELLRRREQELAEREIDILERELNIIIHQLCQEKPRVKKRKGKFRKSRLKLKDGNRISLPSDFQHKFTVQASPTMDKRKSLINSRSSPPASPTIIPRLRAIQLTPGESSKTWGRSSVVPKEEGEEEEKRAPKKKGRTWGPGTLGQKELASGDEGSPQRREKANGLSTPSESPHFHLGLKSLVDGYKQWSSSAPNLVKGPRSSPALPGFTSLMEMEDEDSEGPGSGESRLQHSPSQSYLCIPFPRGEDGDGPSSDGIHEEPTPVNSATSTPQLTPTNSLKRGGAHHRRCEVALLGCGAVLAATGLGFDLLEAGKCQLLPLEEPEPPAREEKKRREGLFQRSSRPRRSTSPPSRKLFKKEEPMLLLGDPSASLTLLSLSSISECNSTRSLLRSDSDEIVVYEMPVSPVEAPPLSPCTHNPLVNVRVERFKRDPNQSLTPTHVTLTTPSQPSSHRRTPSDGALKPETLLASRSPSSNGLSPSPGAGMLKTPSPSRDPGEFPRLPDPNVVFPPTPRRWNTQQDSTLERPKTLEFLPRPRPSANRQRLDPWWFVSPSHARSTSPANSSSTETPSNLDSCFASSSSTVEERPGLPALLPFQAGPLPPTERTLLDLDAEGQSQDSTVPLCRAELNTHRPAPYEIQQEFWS
T22 sequence (P34947 whole entry): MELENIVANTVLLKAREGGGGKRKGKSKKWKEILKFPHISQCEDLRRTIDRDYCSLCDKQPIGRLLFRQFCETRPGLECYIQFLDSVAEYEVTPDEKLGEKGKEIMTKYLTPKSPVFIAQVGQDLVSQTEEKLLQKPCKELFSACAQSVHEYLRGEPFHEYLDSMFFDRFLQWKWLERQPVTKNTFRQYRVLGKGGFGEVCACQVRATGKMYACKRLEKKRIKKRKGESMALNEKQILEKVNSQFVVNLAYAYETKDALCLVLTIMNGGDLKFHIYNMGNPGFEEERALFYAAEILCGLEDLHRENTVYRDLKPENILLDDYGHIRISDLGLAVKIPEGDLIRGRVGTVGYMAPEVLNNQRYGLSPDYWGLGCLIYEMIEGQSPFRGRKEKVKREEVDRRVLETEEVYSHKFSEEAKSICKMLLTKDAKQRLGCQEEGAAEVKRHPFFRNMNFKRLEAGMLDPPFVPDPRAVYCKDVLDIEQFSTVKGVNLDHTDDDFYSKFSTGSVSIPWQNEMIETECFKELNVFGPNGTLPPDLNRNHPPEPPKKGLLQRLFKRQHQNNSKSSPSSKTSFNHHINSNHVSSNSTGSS
T8 sequence (P51617 whole entry): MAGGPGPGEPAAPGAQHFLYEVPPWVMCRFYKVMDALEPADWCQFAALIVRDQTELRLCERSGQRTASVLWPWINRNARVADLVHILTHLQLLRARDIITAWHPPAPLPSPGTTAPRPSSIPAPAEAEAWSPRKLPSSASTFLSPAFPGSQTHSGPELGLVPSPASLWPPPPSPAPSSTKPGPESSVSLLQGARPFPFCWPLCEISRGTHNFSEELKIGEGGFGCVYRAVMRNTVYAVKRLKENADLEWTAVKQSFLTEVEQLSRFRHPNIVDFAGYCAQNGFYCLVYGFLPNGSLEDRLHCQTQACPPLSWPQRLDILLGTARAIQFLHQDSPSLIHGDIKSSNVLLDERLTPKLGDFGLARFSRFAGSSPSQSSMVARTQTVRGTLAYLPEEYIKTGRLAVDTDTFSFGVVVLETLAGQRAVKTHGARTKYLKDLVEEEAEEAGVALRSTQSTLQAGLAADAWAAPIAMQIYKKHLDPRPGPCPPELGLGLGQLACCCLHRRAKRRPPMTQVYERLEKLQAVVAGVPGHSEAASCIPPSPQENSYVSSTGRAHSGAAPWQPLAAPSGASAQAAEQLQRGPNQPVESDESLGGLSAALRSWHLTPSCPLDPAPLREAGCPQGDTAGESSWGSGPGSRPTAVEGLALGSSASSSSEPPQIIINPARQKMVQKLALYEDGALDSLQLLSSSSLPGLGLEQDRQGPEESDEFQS
T5 sequence (Q13882 whole entry): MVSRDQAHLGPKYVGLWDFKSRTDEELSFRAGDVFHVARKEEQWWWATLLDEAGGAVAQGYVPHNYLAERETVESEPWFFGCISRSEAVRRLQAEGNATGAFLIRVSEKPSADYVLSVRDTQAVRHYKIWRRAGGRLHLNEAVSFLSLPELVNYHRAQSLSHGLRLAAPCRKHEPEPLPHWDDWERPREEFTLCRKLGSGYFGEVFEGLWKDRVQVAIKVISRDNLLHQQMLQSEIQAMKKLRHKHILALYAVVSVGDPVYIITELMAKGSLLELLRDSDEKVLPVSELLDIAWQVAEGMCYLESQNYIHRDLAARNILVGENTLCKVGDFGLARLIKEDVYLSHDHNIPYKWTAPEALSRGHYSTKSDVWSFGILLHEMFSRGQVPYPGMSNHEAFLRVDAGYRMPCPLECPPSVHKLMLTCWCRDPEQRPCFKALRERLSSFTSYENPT
T17 sequence (P04629 33-796): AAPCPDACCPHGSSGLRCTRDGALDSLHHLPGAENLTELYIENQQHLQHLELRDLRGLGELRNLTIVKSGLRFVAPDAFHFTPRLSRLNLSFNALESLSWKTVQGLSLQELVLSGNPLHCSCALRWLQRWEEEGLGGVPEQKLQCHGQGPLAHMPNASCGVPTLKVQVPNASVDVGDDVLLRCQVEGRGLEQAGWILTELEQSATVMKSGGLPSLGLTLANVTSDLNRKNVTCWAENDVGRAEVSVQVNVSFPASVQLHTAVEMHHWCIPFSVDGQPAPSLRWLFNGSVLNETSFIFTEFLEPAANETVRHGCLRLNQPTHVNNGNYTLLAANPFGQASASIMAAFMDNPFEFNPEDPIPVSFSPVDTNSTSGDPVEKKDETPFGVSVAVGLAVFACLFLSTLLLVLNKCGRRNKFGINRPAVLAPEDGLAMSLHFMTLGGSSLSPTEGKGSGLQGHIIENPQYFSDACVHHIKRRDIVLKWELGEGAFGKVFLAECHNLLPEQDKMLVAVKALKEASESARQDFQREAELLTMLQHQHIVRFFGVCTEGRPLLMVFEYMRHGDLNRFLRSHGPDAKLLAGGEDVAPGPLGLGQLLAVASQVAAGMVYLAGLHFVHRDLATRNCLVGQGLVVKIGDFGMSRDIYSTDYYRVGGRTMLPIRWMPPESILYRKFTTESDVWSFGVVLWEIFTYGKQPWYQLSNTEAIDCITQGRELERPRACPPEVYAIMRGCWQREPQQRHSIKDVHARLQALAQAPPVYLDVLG
T10 sequence (Q16539 whole entry): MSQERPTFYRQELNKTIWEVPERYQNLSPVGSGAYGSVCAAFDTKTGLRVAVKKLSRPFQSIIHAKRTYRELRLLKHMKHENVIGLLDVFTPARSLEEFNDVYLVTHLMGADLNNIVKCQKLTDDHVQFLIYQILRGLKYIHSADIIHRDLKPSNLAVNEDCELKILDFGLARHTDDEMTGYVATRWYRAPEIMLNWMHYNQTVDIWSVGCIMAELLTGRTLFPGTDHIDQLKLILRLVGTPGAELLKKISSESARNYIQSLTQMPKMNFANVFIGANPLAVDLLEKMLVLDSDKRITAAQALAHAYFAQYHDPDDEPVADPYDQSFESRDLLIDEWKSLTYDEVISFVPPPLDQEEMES

COc1cc(C(N)=O)nc(-c2cccc(C#C[C@]3(O)CCN(C)C3=O)c2)c1 [NIK SMI1]
inhibition at 1 µM (P38_delta): 12.5%
% Inhibition (PKD1): 79%
inhibition at 1 µM (PKD1): > 75%
inhibition at 1 µM (CLK1): 4.5%
inhibition at 1 µM (MLK1): -1%
inhibition at 1 µM (Brk): 7%
inhibition at 1 µM (IKK_beta): 4.5%
inhibition at 1 µM (PKG1_alpha): 14.5%
inhibition at 1 µM (IRAK1): 1.8%
inhibition at 1 µM (p70S6K): 9.5%
inhibition at 1 µM (p38_alpha): -7.5%
inhibition at 1 µM (MRCK_alpha): 0.5%
inhibition at 1 µM (CaMKI_delta): 15%
inhibition at 1 µM (SGK2): 9.5%
inhibition at 1 µM (ROCK2): 7.5%
inhibition at 1 µM (FGFR1): -5.5%
inhibition at 1 µM (PKC_theta): -6%
inhibition at 1 µM (TrkA): 2.5%
inhibition at 1 µM (SGK1): 5%
inhibition at 1 µM (NEK4): 11%
inhibition at 1 µM (eEF-2K): 4%
inhibition at 1 µM (PKC_zeta): 7%
inhibition at 1 µM (GRK5): 0.5%
inhibition at 1 µM (MST1): 11.5%
inhibition at 1 µM (Src): -1.5%
inhibition at 1 µM (PhK_gamm1): 6.5%
inhibition at 1 µM (Axl): 9.3%
inhibition at 1 µM (InsR): 2%
inhibition at 1 µM (PKA): -3%
inhibition at 1 µM (Ron): 13%
inhibition at 1 µM (DYRK4): 5.5%
inhibition at 1 µM (PRK1): 5.5%
inhibition at 1 µM (IRR): 5%
